Experimental data reported in patent US12428406B2 (PMV Pharmaceuticals, Inc., priority 2019, dated 2025).

biological target: T1, p53 Y220C (Homo sapiens, UniProt P04637, Y220C); assay: In vitro DNA binding activity assay (HTRF / TR-FRET): stabilization of p53 Y220C and increase of its DNA binding activity; assay type: biochemical; details: recombinant His-tagged p53 Y220C DNA binding domain (aa 94-312), biotin-labeled consensus DNA, incubated at 27° C. or 29° C. for 60 min
T1 construct: The recombinant protein was a truncation mutant containing only amino acids 94-312 of p53; made in house; host or cells: E. coli
T1 sequence (P04637 94-312, change not shown): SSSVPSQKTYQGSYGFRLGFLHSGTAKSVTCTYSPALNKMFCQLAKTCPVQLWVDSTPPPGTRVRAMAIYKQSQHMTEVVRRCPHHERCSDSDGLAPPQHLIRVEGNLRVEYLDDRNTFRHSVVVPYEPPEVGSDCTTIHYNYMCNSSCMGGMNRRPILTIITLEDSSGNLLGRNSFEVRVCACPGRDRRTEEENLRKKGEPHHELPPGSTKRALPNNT
Procedure, shortened: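 His-tagged p53 Y220C, E. coli-expressed, binding biotin-labeled consensus DNA measured by HTRF (anti-His-APC, streptavidin-europium). Compounds from 4.5 mM DMSO stocks, 3-fold serial dilutions; incubations at room temperature 15 min, then 20 min. SC150 = concentration raising DNA binding by 50%.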

Row | Structure (SMILES) | SC150 (concentration of the compound required to increase the DNA binding activity by 50%)
1 | COc1cc(S(C)(=O)=O)ccc1NCC#Cc1cc2c(N[C@H]3CC[C@H](N4CCCC4)CC3)cccc2n1CC(F)(F)F [Compound 424A, 2-{3-[(4-methane-sulfonyl-2-methoxy-phenyl)amino]prop-1-yn-1-yl}-N-[(1R,4R)-4-(pyrrolidin-1-yl)cyclohexyl]-1-(2,2,2-trifluoroethyl)-1H-indol-4-amine] | + (+ = 0 μM ≤ SC150 < 0.05 μM)
2 | COc1cc(S(N)(=O)=O)ccc1NCC#Cc1cc2c(N[C@H]3CC[C@H](N4CC5(CCOCC5)C4)CC3)cccc2n1CC(F)(F)F [Compound 297A, 3-methoxy-4-{[3-(4-{[(1R,4R)-4-{7-oxa-2-azaspiro[3.5]nonan-2-yl}cyclohexyl]amino}-1-(2,2,2-trifluoroethyl)-1H-indol-2-yl)prop-2-yn-1-yl]amino}benzene-1-sulfonamide] | + (+ = 0 μM ≤ SC150 < 0.05 μM)
3 | COc1cc(S(=O)(=O)NC(C)=O)ccc1NCC#Cc1cc2c(N[C@H]3CC[C@H](N(C)C)CC3)cccc2n1CC(F)(F)F [Compound 83A, N-(3-methoxy-4-{[3-(4-{[(1R,4R)-4-(dimethylamino)cyclohexyl]amino}-1-(2,2,2-trifluoroethyl)-1H-indol-2-yl)prop-2-yn-1-yl]amino}benzenesulfonyl)acetamide] | + (+ = 0 μM ≤ SC150 < 0.05 μM)

Now from value to molecule:

Row | SC150 (concentration of the compound required to increase the DNA binding activity by 50%) | Structure (SMILES)
4 | + (+ = 0 μM ≤ SC150 < 0.05 μM) | CCNC(=O)c1ccc(NCC#Cc2cc3c(N[C@H]4CC[C@H](N(C)C)CC4)cccc3n2CC(F)(F)F)c(OC)c1 [Compound 101A, N-ethyl-3-methoxy-4-{[3-(4-{[(1R,4R)-4-(dimethylamino)cyclo-hexyl]amino}-1-(2,2,2-trifluoroethyl)-1H-indol-2-yl)prop-2-yn-1-yl]amino}benzamide]
5 | + (+ = 0 μM ≤ SC150 < 0.05 μM) | COc1cc(C(C)(C)C#N)ncc1NCC#Cc1cc2c(NC3CCN(CC(O)CO)CC3)cccc2n1CC(F)(F)F (stereo not drawn) [Compound 554A, 2-(5-{[3-(4-{[1-(2,3-dihydroxypropyl)piperidin-4-yl]amino}-1-(2,2,2-trifluoroethyl)-1H-indol-2-yl)prop-2-yn-1-yl]amino}-4-methoxypyridin-2-yl)-2-methylpropanenitrile]
6 | + (+ = 0 μM ≤ SC150 < 0.05 μM) | CCS(=O)(=O)c1ccc(NCC#Cc2cc3c(N[C@H]4CC[C@H](N(C)C)CC4)cccc3n2CC(F)(F)F)c(OC)c1 [Compound 119A, (1R,4R)—N^4-[2-(3-{[4-(ethanesulfonyl)-2-methoxyphenyl]amino}prop-1-yn-1-yl)-1-(2,2,2-trifluoroethyl)-1H-indol-4-yl]-N^1,N^1-dimethylcyclohexane-1,4-diamine]
